From US20200329698A1, “COMPOSITIONS FOR ORGAN GRAFT PRESERVATION AND METHODS OF USE” (Nobilis Therapeutics, Inc., priority 2019, published 2020)

System: rat renal grafts from DBD donation or DCD donation
Procedure: Rat renal transplantation was performed. Rat donor kidneys were transplanted orthotopically into recipients by using standard microvascular techniques. […] After the specified period of cold ischemia, the recipient's left kidney was extracted, and the donor renal vein was connected to the recipient renal vein through end-to-end anastomosis. The arterial anastomosis between the donor aortic patch was connected to the recipient aorta in an end-to-side manner. Urinary reconstruction was performed by ureter-to-bladder anastomosis. The total surgical ischemia time was restricted to <45 min. The contralateral kidney was removed immediately after engraftment.
Tumor necrosis factor-α (TNF-α) in the culture medium were detected by ELISA (Human TNF-α ELISA kits, INVITROGEN®, UK). Rat lung tissue and serum TNF-α were measured by ELISA (Rat TNF-α ELISA kits, INVITROGEN®, UK).
MTS was performed on paraffin-embedded tissue according to the manufacturer's instructions (MTS kit; SIGMA-ALDRICH®, Ltd., Poole, UK). The amount of collagen deposition (percentage of MTS-stained area) was then digitally quantified with ImageJ software (U.S. National Institutes of Health, Bethesda, Md., USA).
Blood samples were collected when the animals were euthanized. After centrifugation, serum urea and creatinine concentrations were measured with an AU2700 analyzer (OLYMPUS).
A rat renal graft machine perfusion model was developed, (see FIG. 1B) to simulate the renal graft preservation process. A series of experiments were conducted using the Fischer-to-Lewis allogeneic renal transplant model. Grafts from donors after brain death (DBD) or cardiac arrest (DCD) were used. The preserving solution was saturated with dexmedetomidine at 0.1 nM[32]. The grafts were extracted and then machine-perfused with UW solution at 4° C.[18] with a flow rate of 1.5-2 ml/min [39] for 4 hours and then kept in the preserving solution until 24 hours. Grafts were then transplanted into Lewis recipient immediately following extraction (cold-ischemia 0 hr), or stored in preservative solution for 24 hr (cold-ischemia 24 hr), The orthotopic renal transplantation into Lewis recipients was conducted and their contralateral kidneys were removed at the end of surgery. The recipient received cyclosporine A (5 mg/kg/day intramuscular injection per day) for 10 days to prevent acute immune rejection.
With respect to FIGS. 4A-4J, Fischer rat renal grafts from DBD donation or DCD donation were stored in UW preservative solution at 4° C., saturated with DEX for up to 24 hrs (Cold ischemia CI 24 hr), grafts harvested from donor (cold ischemia CI 0 hr) serves as control. (A and B) Serum creatinine and urea concentration were analyzed 24 hours after transplantation (n=6). (C and D) Tissue cytokine TNF-α and IL-1β concentration was assessed by ELISA. (E) TUNEL staining of renal tubules in renal cortices 24 hours after transplantation. Scale bar=50 μm. In DCD grafts, Infiltrated CD68+ macrophages (Red fluoresce; F) and renal fibrosis (blue MTS staining; G) on day 8 after transplantation were assessed. In both DCD and DBD grafts, (H) Analysis of the percentage of TUNEL+ tubular cells in renal cortices. (I) The number of CD68+ macrophage, and (J) the area of MTS staining. Data is expressed as mean±SD (n=6). […] CI: cold ischemia, Vh: Vehicle, Dex: Dexmedetomidine.

[1] = after transplantation, graft stored with Dex 0.1 nM, CI 24 hr
[2] = day 16 after surgery, graft stored with Dex 0.1 nM

## Cc1cccc([C@H](C)c2cnc[nH]2)c1C [Dexmedetomidine]
24 hours after transplantation, graft stored with Dex 0.1 nM
  cell death (number of TUNEL+ cells) in renal cortices: reduced
[1]
  tissue level of cytokine IL-1β (ELISA): reduced tissue level
  tissue level of cytokine TNF-α (ELISA): reduced tissue level
Day 1 (24 hours) after transplantation, graft stored with Dex 0.1 nM, CI 24 hr
  renal functional recovery (serum creatinine and urea): induced a quick functional recovery
[2]
  macrophage infiltration (number of CD68+ cells): attenuated
  renal fibrosis (MTS staining): attenuated
Overall conclusion
  protection in ex vivo renal allograft from cardiac arrest donation: conferred significant protection
